Target: ROCK1 (Homo sapiens (Human), UniProt Q13464)
Assay: ROCK1 kinase IC50 assay (biological test method similar to the ROCK2 assay)
Assay type: biochemical
Conditions: not given
In short: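 HTRF KinEASE-STK S2 assay with the STK-S2 biotinylated substrate and ATP, at 5× working solutions of 1.5 µM each. Kinase reaction with 9-point compound dilutions ran 2 h at room temperature, followed by 1 h streptavidin-XL665/Cryptate detection. The 665/615 nm ratio was normalised to no-compound and no-kinase wells, and IC50 was obtained by curve fitting.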

ROCK1, sequence (Q13464 whole entry, species assumed): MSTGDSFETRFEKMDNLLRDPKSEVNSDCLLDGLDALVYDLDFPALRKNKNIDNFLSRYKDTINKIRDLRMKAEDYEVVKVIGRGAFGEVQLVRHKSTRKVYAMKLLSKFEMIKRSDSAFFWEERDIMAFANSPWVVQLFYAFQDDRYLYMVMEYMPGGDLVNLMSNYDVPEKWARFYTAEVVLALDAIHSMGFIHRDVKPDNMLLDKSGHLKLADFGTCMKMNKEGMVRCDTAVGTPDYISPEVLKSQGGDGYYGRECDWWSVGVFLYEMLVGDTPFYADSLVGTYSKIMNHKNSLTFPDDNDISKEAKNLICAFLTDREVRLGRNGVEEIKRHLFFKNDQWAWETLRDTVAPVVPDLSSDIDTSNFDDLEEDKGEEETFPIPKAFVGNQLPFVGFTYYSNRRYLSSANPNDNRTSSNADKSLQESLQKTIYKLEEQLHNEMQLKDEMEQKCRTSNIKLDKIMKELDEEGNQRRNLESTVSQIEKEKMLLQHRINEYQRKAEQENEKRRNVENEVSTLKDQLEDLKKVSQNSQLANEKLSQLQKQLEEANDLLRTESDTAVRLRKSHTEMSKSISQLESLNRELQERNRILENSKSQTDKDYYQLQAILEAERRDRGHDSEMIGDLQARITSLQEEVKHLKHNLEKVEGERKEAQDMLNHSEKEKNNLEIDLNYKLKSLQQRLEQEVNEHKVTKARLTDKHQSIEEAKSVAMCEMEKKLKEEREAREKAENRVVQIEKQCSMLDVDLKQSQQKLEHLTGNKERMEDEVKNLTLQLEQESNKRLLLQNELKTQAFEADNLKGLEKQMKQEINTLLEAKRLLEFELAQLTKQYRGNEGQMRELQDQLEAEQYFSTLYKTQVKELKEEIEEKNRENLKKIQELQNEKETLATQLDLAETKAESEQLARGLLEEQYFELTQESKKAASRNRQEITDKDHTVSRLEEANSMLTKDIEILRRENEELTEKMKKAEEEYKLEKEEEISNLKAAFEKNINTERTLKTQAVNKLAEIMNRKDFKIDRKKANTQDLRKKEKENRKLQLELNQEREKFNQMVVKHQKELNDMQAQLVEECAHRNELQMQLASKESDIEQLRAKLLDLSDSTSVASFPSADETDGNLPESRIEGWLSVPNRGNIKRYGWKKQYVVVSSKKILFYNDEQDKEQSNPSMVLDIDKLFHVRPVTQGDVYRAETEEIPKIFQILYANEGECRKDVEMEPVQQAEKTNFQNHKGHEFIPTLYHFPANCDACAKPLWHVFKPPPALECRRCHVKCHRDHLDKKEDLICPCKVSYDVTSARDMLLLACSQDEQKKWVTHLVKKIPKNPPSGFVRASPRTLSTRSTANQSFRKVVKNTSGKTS

Compared with `Cn1c(-n2ccnc2)cc2ccc(-c3nccc(Nc4ccc(-c5cn[nH]c5)cc4)n3)cc21` [TDI01876B, 2-(2-(1H-imidazol-1-yl)-1-methyl-1H-indol-6-yl)-N-(4-(1H-pyrazol-4-yl)phenyl)pyrimidin-4-amine], `CN(C(=O)c1cc2ccc(-c3nccc(Nc4ccc(-c5cn[nH]c5)cc4)n3)cc2[nH]1)c1ccncc1` [TDI01421, 6-(4-((4-(1H-pyrazol-4-yl)phenyl)-amino)-pyrimidin-2-yl)-N-methyl-N-(pyridin-4-yl)-1H-indole-2-carboxamide] is lower in IC50: over 10000 nM for the first, 5940 nM for the second. The second is the more potent here.

First: O=C(Nc1nncs1)c1cc2ccc(-c3nccc(Nc4ccc5[nH]ncc5c4)n3)cc2[nH]1 [TDI01247, 6-(4-((1H-indazol-5-yl)amino)pyrimidin-2-yl)-N-(1,3,4-thiadiazol-2-yl)-1H-indole-2-carboxamide]
Second: CN(C(=O)c1cc2ccc(-c3nccc(Nc4ccc5[nH]ncc5c4)n3)cc2[nH]1)c1ccnnc1 [TDI01347, 6-(4-((1H-indazol-5-yl)amino)-pyrimidin-2-yl)-N-methyl-N-(pyridazin-4-yl)-1H-indole-2-carboxamide]
The IC50 of the first is higher: over 10000 nM for the first, 5580 nM for the second. The second is the more potent here.

Compared with `CCNC(=O)N1Cc2ccc(-c3nccc(Nc4ccc(-c5cn[nH]c5)cc4)n3)cc2C1` [TDI01411, 5-(4-((4-(1H-pyrazol-4-yl)phenyl)amino)pyrimidin-2-yl)-N-ethylisoindoline-2-carboxamide], `O=C(c1cc2ccc(-c3nccc(Nc4ccc(-c5cn[nH]c5)cc4)n3)cc2[nH]1)N1CCC1` [TDI01330, (6-(4-((4-(1H-pyrazol-4-yl)phenyl)-amino)-pyrimidin-2-yl)-1H-indol-2-yl)(azetidin-1-yl)methanone] is lower in IC50: over 10000 nM for the first, 7930 nM for the second. The second is the more potent here.

Compared with `O=C(NC1CCOCC1)c1cc2ccc(-c3nccc(Nc4ccc(-c5cn[nH]c5)cc4)n3)cc2[nH]1` [TDI01338, 6-(4-((4-(1H-pvrazol-4-yl)phenyl)-amino)-pyrimidin-2-yl)-N-(tetrahydro-2H-pyran-4-yl)-1H-indole-2-carboxamide], `CN(C(=O)c1cc2ccc(-c3nccc(Nc4ccc(-c5cn[nH]c5)cc4)n3)cc2[nH]1)C1CCOCC1` [TDI01381, 6-(4-((4-(1H-pyrazol-4-yl)phenyl)amino)pyrimidin-2-yl)-N-methyl-N-(tetrahydro-2H-pyran-4-yl)-1H-indole-2-carboxamide] is 2.3-fold higher in IC50: 1800 nM for the first, 4110 nM for the second.

`Cc1cnc(-c2ccc3cc(C(=O)Nc4ccnnc4)[nH]c3c2)nc1Nc1ccc2[nH]ncc2c1` [TDI01250, 6-(4-((1H-indazol-5-yl)amino)-5-methyl-pyrimidin-2-yl)-N-(pyridazin-4-yl)-1H-indole-2-carboxamide] and `O=C(Nc1ccnnc1)c1cc2ccc(-c3ncnc(Nc4ccc5[nH]ncc5c4)n3)cc2[nH]1` [TDI01167, 6-(4-((1H-indazol-5-yl)amino)-1,3,5-triazin-2-yl)-N-(pyridazin-4-yl)-1H-indole-2-carboxamide] cannot be ordered by IC50: over 10000 nM for the first, over 10000 nM for the second.

First: O=C(Nc1ccnnc1)c1cc2ccc(-c3nc(Nc4ccc5[nH]ncc5c4)c4sccc4n3)cc2[nH]1 [TDI01175, 6-(4-((1H-indazol-5-yl)amino)-thieno[3,2-d]pyrimidin-2-yl)-N-(pyridazin-4-yl)-1H-indole-2-carboxamide]
Second: O=C(Nc1ccnnc1)c1ccc2ccc(-c3nccc(Nc4ccc5[nH]ncc5c4)n3)cc2n1 [TDI01236, 7-(4-((1H-indazol-5-yl)ami-no)pyrimidin-2-yl)-N-(pyridazin-4-yl)quinoline-2-carboxamide]
The IC50 of the first is lower: 5190 nM for the first, over 10000 nM for the second. The first is the more potent here.

First: CC(C)NC(=O)c1cc2ccc(-c3nc(Nc4ccc(-c5cn[nH]c5)cc4)c4sccc4n3)cc2[nH]1 [TDI01370, 6-(4-((4-(1H-pyrazol-4-yl)phenyl)-amino)-thieno[3,2-d]pyrimidin-2-yl)-N-isopropyl-1H-indole-2-carboxamide]
Second: CC(C)(C)OC(=O)n1cc(NC(=O)c2cc3ccc(-c4nccc(Nc5ccc6[nH]ncc6c5)n4)cc3[nH]2)cn1 [TDI01200, tert-butyl 4-(6-(4-((1H-indazol-5-yl)amino)-pyrimidin-2-yl)-1H-indole-2-carboxamido)-1H-pyrazole-1-carboxylate]
The IC50 of the first is 2.7-fold higher: 1490 nM for the first, 559 nM for the second.

Compared with `CC(C)NC(=O)C1COc2ccc(-c3nccc(Nc4ccc5[nH]ncc5c4)n3)cc2O1` (centres unmarked) [TDI01103, 7-(4-((1H-indazol-5-yl)amino)pyrimidin-2-yl)-N-isopropyl-2,3-dihydrobenzo[b][1,4]dioxine-2-carboxamide], `O=C(NC1CCOCC1)c1cc2ccc(-c3nccc(Nc4ccc5[nH]ncc5c4)n3)cc2[nH]1` [TDI01291, 6-(4-((1H-indazol-5-yl)amino)-pyrimidin-2-yl)-N-(tetrahydro-2H-pyran-4-yl)-1H-indole-2-carboxamide] is 3.6-fold lower in IC50: 2060 nM for the first, 573 nM for the second. The second is the more potent here.

Target: ROCK2 (Homo sapiens, UniProt O75116)
Assay: ROCK2 kinase IC50 assay (CISBIO HTRF KinEASE-STK S2 kit)
Assay type: biochemical
Conditions: incubated at room temperature for 2 hours
Experimental: The kinase IC50 was determined by a commercialized CISBIO kinase detection kit, HTRF KinEASE-STK S2 kit (62ST2PEC). ROCK2 (01-119) employed in the reaction was purchased from Carna Biosciences.
Before the assay, the following working solutions as needed were formulated with corresponding reagents according to the instruction of the kinase detection kit: 1×kinase buffer, 5×STK-52 substrate working solution (1.5 μM) and 5×ATP working solution (1.5 μM), 5×ROCK2 kinase working solution, 4×Streptavidin-XL665 working solution, and 4×STK-Ab-Cryptate 2 detection solution. Then the assay was performed according to the following procedure.
A solution of a compound at a concentration of 10000 nM was prepared with the 1×kinase buffer containing 2.5% DMSO. Gradient dilution of the solution of the compound was performed with the kinase buffer containing DMSO, so as to obtain solutions of a test compound at 9 different concentrations. In addition to wells of test compounds, a positive well (containing all the reagents except the compound) and a negative well (containing all the reagents except the test compound and kinase) were set. Except for the control wells (positive and negative wells), a solution of a test compound (4 μL) was added to each of the reaction wells, and a solution of 2.5% DMSO was added to the control wells. Then the substrate ([…], 2 μL. 5×STK-S2 substrate working solution) was added to each of the reaction wells. The 5×ROCK2 kinase working solution (2 μL, containing 1.4 ng ROCK2 kinase) was added to each of the reaction wells except for the negative well, the volume of which was made up with the 1×kinase buffer (2 μL). The 5×ATP working solution (2 μL) was added to each of the reaction wells, and the mixtures were incubated at room temperature for 2 hours. After the kinase reaction was complete, the 4×Streptavidin-XL665 working solution was added to each of the reaction wells, the solutions were mixed, followed by immediate addition of the 4×STK-Ab-Cryptate 2 detection solution (5 μL), and the mixtures were incubated at room temperature for 1 hour. The fluorescence signal was read on ENVISION (Perkinelmer) (excitation wavelength: 320 nm, and emission wavelength: 665 nm and 615 nm). The inhibitory rate in each well was calculated based on the fluorescence intensity value: ER (Emission Ratio)=(fluorescence intensity at 665 nm/fluorescence intensity at 615 nm); inhibitory rate=(ERpositive−ERtest compound)/(ERpositive−ERnegative)*100%. Curves were plotted and fitted to obtain the median inhibitory concentration (IC50) of each teat compound with the PRISM 5.0 software.

`Cn1c(-n2ccnc2)cc2ccc(-c3nccc(Nc4ccc(-c5cn[nH]c5)cc4)n3)cc21` [TDI01876B, 2-(2-(1H-imidazol-1-yl)-1-methyl-1H-indol-6-yl)-N-(4-(1H-pyrazol-4-yl)phenyl)pyrimidin-4-amine] and `Cn1c(-n2ccnc2)cc2ccc(-c3nccc(Nc4ccc(-c5cn[nH]c5)c(F)c4)n3)cc21` [TDI01684, 2-(2-(1H-imidazol-1-yl)-1-methyl-1H-indol-6-yl)-N-(3-fluoro-4-(1H-pyrazol-4-yl)phenyl)pyrimidin-4-amine] are within 1.5-fold of each other in IC50: 240 nM for the first, 171 nM for the second.

Going from `COc1cc(Nc2ccc3[nH]ncc3c2)nc(-c2ccc3cc(C(=O)Nc4ccnnc4)[nH]c3c2)n1` [TDI01801, 6-(4-((1H-indazol-5-yl)amino)-6-methoxy-pyrimidin-2-yl)-N-(pyridazin-4-yl)-1H-indole-2-carboxamide] to `CC(C)(C)OC(=O)n1ncc2cc(NC(=O)c3cc4ccc(-c5nccc(Nc6ccc7[nH]ncc7c6)n5)cc4[nH]3)ccc21` [TDI01248, tert-butyl 5-(6-(4-((1H-indazol-5-yl)amino)-pyrimidin-2-yl)-1H-indole-2-carboxamido)-1H-indazole-1-carboxylate], the IC50 rises from 68 nM to 500 nM (7.4-fold).

`CN(C)C(=O)c1cc2ccc(-c3nc(Nc4ccc5[nH]ncc5c4)c4sccc4n3)cc2[nH]1` [TDI01406, 6-(4-((1H-indazol-5-yl)amino)-thieno[3,2-d]pyrimidin-2-yl)-N,N-dimethyl-1H-indole-2-carboxamide] and `CN(C)C(=O)c1cc2ccc(-c3nccc(Nc4ccc5[nH]ncc5c4)n3)cc2[nH]1` [TDI01353, 6-(4-((1H-indazol-5-yl)amino)-pyrimidin-2-yl)-N,N-dimethyl-1H-indole-2-carboxamide] are within 1.5-fold of each other in IC50: 285 nM for the first, 307 nM for the second.

Going from `C[C@@H](NC(=O)c1cc2ccc(-c3nccc(Nc4ccc5[nH]ncc5c4)n3)cc2[nH]1)c1ccncc1` [TDI01849, (R)-6-(4-((1H-indazol-5-yl)amino)-pyrimpidin-2-yl)-N-(1-(pyridin-4-yl)ethyl)-1H-indole-2-carboxamide] to `O=C(NC1CCN(c2ccncc2)CC1)c1cc2ccc(-c3nccc(Nc4ccc5[nH]ncc5c4)n3)cc2[nH]1` [TDI01814, 6-(4-((1H-indazol-5-yl)amino)-pyrimidin-2-yl)-N-(1-(pyridin-4-yl)piperidin-4-yl)-1H-indole-2-carboxamide], the IC50 falls from 132 nM to 18 nM (7.3-fold). The second is the more potent here.

Going from `Cc1cc2ccc(-c3nccc(Nc4ccc5[nH]ncc5c4)n3)cc2[nH]1` [TDI01901, N-(2-(2-methyl-1H-indol-6-yl)pyrimidin-4-yl)-1H-indazol-5-amine] to `COC(=O)C(Cc1c[nH]cn1)NC(=O)c1cc2ccc(-c3nccc(Nc4ccc5[nH]ncc5c4)n3)cc2[nH]1` (centres unmarked) [TDI01385, methyl (6-(4-((1H-indazol-5-yl)amino)-pyrimidin-2-yl)-1H-indole-2-carbonyl)-histidinate], the IC50 falls from 387 nM to 107 nM (3.6-fold). The second is the more potent here.

Compared with `O=C(NC1CCCC(N2CCOCC2)C1)c1cc2ccc(-c3nccc(Nc4ccc(-c5cn[nH]c5)cc4)n3)cc2[nH]1` (centres unmarked) [TDI01878, 6-(4-((4-(1H-pyrazol-4-yl)phenyl)-amino)-pyrimidin-2-yl)-N-(3-morpholino-cyclohexyl)-1H-indole-2-carboxamide], `CC(C)NC(=O)c1cc2ccc(-c3nc(Nc4ccc(-c5cn[nH]c5)cc4)cc(OCCN(C)C)n3)cc2[nH]1` [TDI01865, 6-(4-((4-(1H-pyrazol-4-yl)phenyl)amino)-6-(2-(dimethylami-no)ethoxy)pyrimidin-2-yl)-N-isopropyl-1H-indole-2-carboxamide] is 44-fold higher in IC50: 9 nM for the first, 400 nM for the second.

`O=C(C1CC(F)(F)C1)N1CCc2ccc(-c3nccc(Nc4ccc5[nH]ncc5c4)n3)cc2C1` [TDI01682, (7-(4-((1H-indazol-5-yl)amino)pyrimidin-2-yl)-3,4-dihydroisoquinolin-2(1H)-yl)(3,3-difluorocyclobutyl)methanone] was tested, and the IC50 was 360 nM.

Source: patent US11390609B2, “Rho-associated protein kinase inhibitor, pharmaceutical composition comprising same, and preparation method and use thereof” (BEIJING TIDE PHARMACEUTICAL CO., LTD., priority 2017, dated 2022)
